Experimental data from US11911349B2, “Rapidly improving vascular conditions by administering vitamin K” (NATTOPHARMA AS, priority 2018, dated 2024).

Tests used:
[1] = system: ApoE/LDLR−/− mice; assay: Example 2: histological assessment of plaque size, composition and vessel wall area in BCA; type: in vivo; conditions: two months
Description: For the determination of atherosclerotic plaque area and composition BCA was dissected, fixed in 4% buffered formalin and embedded in paraffin. 5 μm-thick serial sections of BCA were collected from proximal, middle and distal parts of artery. Originally developed staining with Unna's orcein combined with Martius, Scarlet and Blue trichrome (OMSB), was applied on every tenth section (50 μm interval between each section) for visualization of collagen, elastin, fibrin, red blood cells and vascular smooth muscle cells within atherosclerotic plaque. The areas of particular components of atherosclerotic plaque as well as artery lumen and wall were determined after Columbus-based software processing (FIG. 1B) using a previously developed algorithm [Gajda M, Jasztal A, Banasik T, Jasek-Gajda E, Chlopicki S. Combined orcein and martius scarlet blue (OMSB) staining for qualitative and quantitative analyses of atherosclerotic plaques in brachiocephalic arteries in apoE/LDLR−/− mice. Histochem Cell Biol 2017. doi:10.1007/s00418-017-1538-8.].

[2] = mouse, in vivo
[3] = system: thrombin generation; assay: Example 3: thrombin generation by calibrated automated thrombogram (CAT) in plasma; type: in vivo, mice; conditions: eight weeks
Protocol: Thrombin generation was measured in platelet-poor mice plasma using calibrated automated thrombography (CAT) technique as described in Hemker H C, Giesen P, Al Dieri R, Regnault V, de Smedt E, Wagenvoord R, et al. Calibrated automated thrombin generation measurement in clotting plasma. Pathophysiol Haemost Thromb 2003; 33:4-15. doi:71636. Thrombin generation was activated by mixing 21 μL of diluted plasma (1:1 with BSA5 buffer) with 7 μIL of fluorogenic substrate (Z-Gly-Gly-Arg-AMC, 16.6 mM) and 14 μL of trigger solution containing phospholipids, tissue factor and CaCl2 (4 μM, 1 pM and 16.6 mM, respectively). In the calibration wells, the 14 μL of reagents were replaced with calibrator (102 nM). Immediately after the activation, 5 μL of the mixture was pipetted on paper disks in a flat bottom 96-well polystyrene plate and covered with 40 μL of mineral oil. Fluorescent signals were measured using the Fluoroskan Ascent software (Thermo Labsystems, Helsinki, Finland) and transformed into thrombin concentration as described in Hemker H C, Kremers R. Data management in Thrombin Generation. Thromb Res 2013; 131:3-11. doi:10.1016/j.thromres.2012.10.011. The parameters analyzed included endogenous thrombin potential (ETP), peak thrombin concentration (peak), and lag time.

[4] = system: ApoE/LDLR−/− mice; assay: Example 3: MRI assessment of FMD in femoral artery and Ach response in abdominal aorta, young mice; type: in vivo; conditions: for improvement in endothelial function compared with low dose (0.05 mg/kg) for 4 weeks: four weeks
Protocol: In a first part of the study, the effects of low doses (0.05 mg/kg b.w./day) as well as higher doses (0.5 mg/kg b.w./day and 5 mg/kg b.w./day) of vitamin K2 (MK-7, referred to in this example as simply “vitamin K2,” unless noted otherwise) on endothelial function in ApoE/LDLR−/−mice without well-established atherosclerotic plaque and with early phase of endothelial dysfunction were assessed.
Mice were randomly assigned to one of four experimental groups: control (untreated group) and three groups treated with vitamin K2 at a dose of 0.05, 0.5, and 5 mg/kg b.w./day, respectively. End-point measurements were performed at the age of 10-16 weeks.
Magnetic resonance imaging (MRI) experiments were performed using a 9.4T scanner (BioSpec 94/20 USR, Bruker, Germany) located in the Department of Magnetic Resonance Imaging, Institute of Nuclear Physics, Polish Academy of Sciences in Krakow. During the experiment, mice were anaesthetized using isoflurane (Aerrane, Baxter Sp. z o. o., Poland, 1.7 vol %) in an oxygen and air (1:2) mixture and imaged in the supine position. Activity of the heart, respiration, and body temperature (maintained at 37° C. using circulating warm water) were monitored using a Monitoring and Gating System (SA Inc., Stony Brook, N.Y., USA).
Endothelial function was assessed based on vascular responses to acetylcholine (Ach) administration in brachiocephalic artery (BCA), left common carotid artery (LCA) (FIGS. 6 A and B) and abdominal aorta (AA) (FIG. 6C) as well as to responses to increase in flow (flow-mediated dilatation, FMD) in femoral artery (FA) (FIG. 6D) as described in Bar A, Skorka T, Jasinski K, Sternak M, Bartel Ż, Tyrankiewicz U, et al. Retrospectively-gated MRI for in vivo assessment of endothelium-dependent vasodilatation and endothelial permeability in murine models of endothelial dysfunction. NMR Biomed 2016; 29(8):1088; Sternak M, Bar A, Adamski M G, Mohaissen T, Marczyk B, Kieronska A, et al. The Deletion of Endothelial Sodium Channel α (αENaC) Impairs Endothelium-Dependent Vasodilation and Endothelial Barrier Integrity in Endotoxemia in Vivo. Front Pharmacol 2018; 9:178. doi:10.3389/fphar.2018.00178; and Bar A, Olkowicz M, Tyrankiewicz U, Kus E, Jasinski K, Smolenski R T, et al. Functional and Biochemical Endothelial Profiling In Vivo in a Murine Model of Endothelial Dysfunction; Comparison of Effects of 1-Methylnicotinamide and Angiotensin-converting Enzyme Inhibitor. Front Pharmacol 2017; 8:183. doi:10.3389/fphar.2017.00183).
Vasomotor response was examined by comparing two time-resolved 3D images of the vessels prior to and 25 minutes after intraperitoneal Ach administration (Sigma-Aldrich, Poznan Poland: 50 μl, 16.6 mg/kg), as well as prior to and 5 minutes after vessel occlusion. Images were acquired using the cine IntraGate™ FLASH 3D sequence, reconstructed with the IntraGate 1.2.b.2 macro (Bruker). End-diastolic volumes of vessels were analyzed using ImageJ software 1.46r (NIH Bethesda, Md., USA) and scripts written in Matlab (MathWorks, Natick, Mass., USA). Imaging parameters included the following: repetition time (TR)—6.4 ms, echo time (TE)—1.4 ms, field of view (FOV)—30×30×5 mm3, matrix size—256×256×30, flip angle (FA)—30°, and number of accumulations (NA)—15, reconstructed to 7 cardiac frames. Total scan time was 10 minutes.

CC(C)=CCC/C(C)=C/CC/C(C)=C/CC/C(C)=C/CC/C(C)=C/CC/C(C)=C/CC/C(C)=C/CC1=C(C)C(=O)c2ccccc2C1=O [MK-7, menaquinone-7]
content of collagen in plaque, treated vs untreated ([1]; high dose 10 mg/kg b.w./day): lack of differences | decrease in lipid core expressed as percent of plaque ([1]; high dose 10 mg/kg b.w./day): about 17% | decrease in vessel wall area (VWA) of BCA ([1]; high dose 10 mg/kg b.w./day): about 5% | effect on plaque size ([1]; high dose 10 mg/kg b.w./day): did not result in a beneficial effect | lumen area expressed as percent of IWA ([1]; high dose 10 mg/kg b.w./day): did not change | plaque area expressed as percent of IWA ([1]; high dose 10 mg/kg b.w./day): did not change | content of collagen in plaque, treated vs untreated ([1]; low dose 0.03 mg/kg b.w./day): lack of differences | decrease in lipid core expressed as percent of plaque ([1]; low dose 0.03 mg/kg b.w./day): about 17% | decrease in vessel wall area (VWA) of BCA ([1]; low dose 0.03 mg/kg b.w./day): about 5% | effect on plaque size ([1]; low dose 0.03 mg/kg b.w./day): did not result in a beneficial effect | lumen area expressed as percent of IWA ([1]; low dose 0.03 mg/kg b.w./day): did not change | plaque area expressed as percent of IWA ([1]; low dose 0.03 mg/kg b.w./day): did not change | internal wall area (IWA) ([1]; lower dose 0.03 mg/kg b.w./day, not visible for entire vessel): decreased only in the middle part of the vessel | K1 2,3-epoxide plasma concentration [2]: tent to decrease | vitamin K1 plasma concentration [2]: tent to decrease | concentration of MK4 2,3-epoxide in plasma ([2]; 5 mg/kg/day): maintained at similar level | plasma concentration of K2 (MK-7) ([2]; 5 mg/kg/day): dose-dependent increase | plasma concentration of MK-4 ([2]; 5 mg/kg/day): dose-dependent increase | thrombin generation ([3]; 0.03 mg/kg b.w./day): did not affect | thrombin generation ([3]; 10 mg/kg b.w./day): did not affect | Ach response in AA, volume changes ([4]; 0.05 mg/kg b.w./day, eight weeks, untreated −16.22%, p=0.05): −0.65% | magnitude of endothelium-dependent response to acetylcholine in abdominal aorta (ACH-AA) ([4]; 0.05 mg/kg b.w./day, two weeks): lack of changes | magnitude of vasodilatation in response to increase in flow in femoral artery (FMD-FA) ([4]; 0.05 mg/kg b.w./day, two weeks): lack of changes | improvement in endothelial function compared with low dose (0.05 mg/kg) for 4 weeks ([4]; 0.5 mg/kg b.w./day): not superior | improvement in endothelial function compared with low dose (0.05 mg/kg) for 4 weeks ([4]; 5 mg/kg b.w./day): not superior | Ach response in AA, volume changes ([4]; 5 mg/kg b.w./day, two weeks, untreated −7.72%, p=0.1): 0.16%
